# Read-outs that look alike come from different tables or passages of the source.
# Experiments:
# Format in all cases: cell-based
# L929 cells = assay: Measurement of cytotoxicity using mouse tumor cell L929 (neutral red assay)
# Protocol: [Procedure] The cytotoxicity action on tumor cell was measured by neutral red assay (the method described in the Journal of Tissue Culture Methodology vol.9, p.7 (1984) and Toxicology Letters, vol.24, p.119 (1985)). Concretely, L929 cells (5×10^4 cells/ml, 10% FCS/RPMI) were added to the wells of a 96 well ELISA plate at a rate of 100 μL each and cultured for a night, and the testing compounds of respective measurement concentrations were dissolved in DMSO solution and added to the above cells. The culture was continued for 3 days, and 2.0 μL of Neutral Red was added to attain the final concentration of 0.01%. The mixture was incubated for 1 hour at 37° C., the supernatant of the cell culture product was removed and the residue was washed twice with 200 μL of PBS to remove excess Neutral Red. Thereafter, the dye taken into the cell was extracted by adding 100 μL of 50% ethanol-1% acetic acid aqueous solution and the amount of the dye was determined by measuring the absorbance at 490 nm. The cytotoxicity was determined at each concentration of the test compound taking the cytotoxicity free from the drug as 100%. […] Two sets of measurement were performed for each test under the same condition and the average value was used as the test result.
# [1] = test system: IgE antibody production from human lymphocyte; assay: Human in vitro IgE antibody production suppressing activity (lymphocyte culture with IL-4 + IL-10 + anti-CD40 antibody, sandwich ELISA); conditions: for IC50: IgE antibody production; for inhibition at 1 µM: test drug concentration 1 μM, IL-4 + IL-10 + anti-CD40 antibody, read-out: IgE production suppressing ratio (%)
# Protocol: (§1) The concentrations of IgE and IgG antibodies were measured by the following method according to the method described in the Journal of Immunology vol.146, pp.1836-1842, 1991 and the Journal of Immunology vol. 147, pp.8-13, 1991.
# (§2) Concretely, lymphocyte was separated from the peripheral venous blood of healthy person by density gradient centrifugation. The obtained lymphocyte was washed, suspended in a culture liquid (RPMI-1640 (product of Gibco Co.)+10% heat-inactivated FCS (product of Whittaker Co.)+100 μg/ml streptomycin+100 U/ml penicillin G+2 mM L-glutamine) and cultured for a week in the presence of interleukin 4 (IL-4, product of GENZYME Co.) (0.1 μg/ml), anti-CD40 antibody (antiCD40Aab, product of BIOSOURCE Co.), clone B-B20) (2 μg/ml) and interleukin 10 (IL-10, product of GENZYME Co.) (0.2 μg/ml) in the presence or absence of the compounds of the present invention described in the Tables 10 to 15 at various concentrations as test drugs.
# (§3) The culture liquid was added to the culture system, the culture was continued for additional one week, and the concentrations of IgE and IgG antibodies in the supernatant were measured by sandwich ELISA method.
# (§4) The measurement by ELISA method was carried out according to the known ELISA method by using rabbit anti-human IgE(ε) antibody (product of ICN Co.) as the primary antibody and biotin.anti-human IgE monoclonal antibody (G7-26, product of PharMingen Co.) as the secondary antibody for the measurement of IgE antibody concentration and anti-human IgG monoclonal antibody (G18-145, product of PharMingen Co.) as the primary antibody and biotin-donkey anti-human IgG antibody (H+L) (product of Jackson Co.) as the secondary antibody for the measurement of IgG antibody concentration, and using avidin-biotin-hourse radish peroxidase (ABC kit, product of Vector Lab.) as the enzyme and TMB (3,3′,5,5′-tetramethylbenzidine) microwell peroxidase substrate system (product of Kirkegaard & Perry Laboratories Inc.) as the substrate.
# (§5) The value of IC50 and the suppressing ratio (%) at the test drug concentration of 1 μM were calculated based on the concentration attained in the absence of the compound of the present invention (reference: Ueshimna, et al. American Academy of Allergy & Immunology, 1995 Annual Meeting, Program No.818).
# [2] = test system: IgG antibody production from human lymphocyte; assay: Human in vitro IgG antibody production (same lymphocyte culture, sandwich ELISA); conditions: for IC50: IgG antibody production
# Protocol: as §1, §2, §3, §4, §5
# [3] = test system: Cultured human cancer cells; assay: Carcinostatic action on cultured human cancer cell (sulforhodamine B; GI50, TGI, LC50); conditions: for CC50 / GI50: Homo sapiens
# Protocol: [Procedure] Cultured human cancer cells (39 kinds) were scattered on a 96 well plate, a solution of the testing substance (5-stage concentrations starting from 10^−4 M and diluted 10 times to 10^−8 M) was added thereto on the next day and the cells were cultured for 2 days. The number of the proliferated cells on each plate was determined by colorimetric quantitative analysis with sulforhodamine B. The concentration to suppress the proliferation of cell by 50% (GI50) compared with a control (free from the testing substance) was calculated and the following values (concentrations) were calculated based on the number of cells immediately before the addition of the testing substance.
# TGI: concentration to suppress the proliferation to a standard cell number (free from the change of apparent number of cells)
# LC50: concentration to decrease the number of cells to 50% of the standard cell number (cytocidal activity)
# The proliferation-suppressing results of three testing substances 124, 257 and 983 on 9 representative cancer cell strains are collectively shown in the Tables 93 to 95.
# [4] = 72 h, cytotoxic activity against L929, neutral red assay, 3 days culture, read-out: LD50 (the source's name)
# [5] = L929, 72 h, read-out: LD50 (μM)
smiles,measurement,setting,value
O=C(CCCOc1ccc2cc(Oc3ccc(CC(=O)Nc4ccccc4C(=O)O)cc3)ccc2c1)Nc1ccccc1C(=O)O [compound 4],CC50,L929 cells; [4],0.375 µM
O=C(Cc1ccc(Oc2ccc3cc(OCC(=O)c4ccccc4)ccc3c2)cc1)Nc1ccccc1C(=O)O [compound 6],CC50,L929 cells; [5],2.4 µM
O=C(Cc1ccc(Oc2ccc(OCc3ccncc3)cc2)cc1)Nc1ccccc1C(=O)O [compound 37],CC50,L929 cells; [5],1.02 µM
CN(C)CCOc1ccc(Oc2ccc(CC(=O)Nc3ccccc3C(=O)O)cc2)cc1 [compound 47],CC50,L929 cells; [4],0.2 µM
COC(=O)N1CCC[C@H]1COc1ccc(Oc2ccc(CC(=O)Nc3ccccc3C(=O)O)cc2)cc1 [compound 59],CC50,L929 cells; [5],2.4 µM
CC(=O)NC1(COc2ccc(Oc3ccc(CC(=O)Nc4ccccc4C(=O)O)cc3)cc2)CCCC1 [compound 73],CC50,L929 cells; [5],> 5 µM
O=C(Cc1ccc(Oc2ccc(OCC3(NC(=O)c4ccccc4)CCCC3)cc2)cc1)Nc1ccccc1C(=O)O [compound 74],CC50,L929 cells; [5],> 5 µM
O=C(Nc1ccccc1C(=O)O)c1ccc(Oc2ccc(OCCN3CCCCC3)cc2)cc1 [compound 93],IC50,[1],0.738 µM
same,inhibition at 1 µM,[1],56.2%
same,IC50,[2],> 10 µM
O=C(Cc1ccc(Oc2ccc(OC3CCC(NS(=O)(=O)c4ccc(Cl)c(Cl)c4)CC3)cc2)cc1)Nc1ccccc1C(=O)O (stereo not shown) [compound 124],CC50,L929 cells; [4],0.14 µM
same,TGI,[3]; HBC-4,18 µM
same,TGI,[3]; HCT-15,17 µM
same,CC50,"[3]; HBC4, HBC-4",57 µM
same,GI50,"[3]; HBC4, HBC-4",0.25 µM
same,CC50,[3]; HCT-15,58 µM
same,GI50,[3]; HCT-15,0.17 µM
same,CC50,[3]; MKN-74,> 100 µM
same,GI50,[3]; MKN-74,0.086 µM
same,CC50,[3]; NCI-H460,69 µM
same,GI50,[3]; NCI-H460,0.091 µM
same,CC50,[3]; OVCAR-8,57 µM
same,GI50,[3]; OVCAR-8,3.1 µM
same,CC50,[3]; PC-3,55 µM
same,GI50,[3]; PC-3,10 µM
same,CC50,[3]; RXF-631L,38 µM
same,GI50,[3]; RXF-631L,0.13 µM
same,CC50,[3]; SF-539,57 µM
same,GI50,[3]; SF-539,0.13 µM
same,CC50,[3]; LOX-IMVI,45 µM
same,GI50,[3]; LOX-IMVI,0.09 µM
same,TGI,[3]; LOX-IMVI,10 µM
same,TGI,[3]; MKN-74,16 µM
same,TGI,[3]; NCI-H460,14 µM
same,TGI,[3]; OVCAR-8,23 µM
same,TGI,[3]; PC-3,24 µM
same,TGI,[3]; RXF-631L,12 µM
same,TGI,[3]; SF-539,26 µM
O=C(Cc1ccc(Oc2ccc(OC3CCC(NC(=O)Nc4ccccc4)CC3)cc2)cc1)Nc1ccccc1C(=O)O (stereo not shown) [compound 138],CC50,L929 cells; [4],0.13 µM
CNc1ccccc1C(=O)N[C@H]1CC[C@@H](Oc2ccc(Oc3ccc(CC(=O)Nc4ccccc4C(=O)O)cc3)cc2)CC1 [compound 156],CC50,L929 cells; [4],0.3 µM
Cn1c(C(=O)N[C@H]2CC[C@@H](Oc3ccc(Oc4ccc(CC(=O)Nc5ccccc5C(=O)O)cc4)cc3)CC2)cc2ccccc21 [compound 167],CC50,L929 cells; [4],0.18 µM
O=C(Cc1ccc(Oc2ccc(O[C@H]3CC[C@@H](NC(=O)c4ccc(-c5ccccc5)cc4)CC3)cc2)cc1)Nc1ccccc1C(=O)O [compound 192],CC50,L929 cells; [4],0.26 µM
O=C(Cc1ccc(Oc2ccc(O[C@H]3CC[C@@H](NC(=O)c4ccc(Oc5cc(Cl)cc(Cl)c5)o4)CC3)cc2)cc1)Nc1ccccc1C(=O)O [compound 248],CC50,L929 cells; [4],0.085 µM
O=C(Cc1ccc(Oc2ccc(OC3CCN(Sc4ccc(Cl)c(Cl)c4)CC3)cc2)cc1)Nc1ccccc1C(=O)O [compound 257],TGI,[3]; HBC-4,18 µM
same,TGI,[3]; HCT-15,17 µM
same,CC50,"[3]; HBC4, HBC-4",58 µM
same,GI50,"[3]; HBC4, HBC-4",< 0.01 µM
same,CC50,[3]; HCT-15,53 µM
same,GI50,[3]; HCT-15,< 0.01 µM
same,CC50,[3]; MKN-74,> 100 µM
same,GI50,[3]; MKN-74,< 0.01 µM
same,CC50,[3]; NCI-H460,44 µM
same,GI50,[3]; NCI-H460,< 0.01 µM
same,CC50,[3]; OVCAR-8,59 µM
same,GI50,[3]; OVCAR-8,< 0.01 µM
same,CC50,[3]; PC-3,69 µM
same,GI50,[3]; PC-3,10 µM
same,CC50,[3]; RXF-631L,42 µM
same,GI50,[3]; RXF-631L,< 0.01 µM
same,CC50,[3]; SF-539,51 µM
same,GI50,[3]; SF-539,< 0.01 µM
same,CC50,[3]; LOX-IMVI,44 µM
same,GI50,[3]; LOX-IMVI,< 0.01 µM
same,TGI,[3]; LOX-IMVI,10 µM
same,TGI,[3]; MKN-74,16 µM
same,TGI,[3]; NCI-H460,11 µM
same,TGI,[3]; OVCAR-8,23 µM
same,TGI,[3]; PC-3,26 µM
same,TGI,[3]; RXF-631L,14 µM
same,TGI,[3]; SF-539,17 µM
N#Cc1cccc(SN2CCC(Oc3ccc(Oc4ccc(CC(=O)Nc5ccccc5C(=O)O)cc4)cc3)CC2)c1 [compound 264],CC50,L929 cells; [4],0.156 µM
O=C(Cc1ccc(Oc2ccc(OCC3(NSc4ccccc4)CCCC3)cc2)cc1)Nc1ccccc1C(=O)O [compound 268],CC50,L929 cells; [4],0.16 µM
CCOCCOc1ccc(Oc2ccc(CC(=O)Nc3ccccc3C(=O)O)cn2)cc1 [compound 415],IC50,[1],0.028 µM
same,inhibition at 1 µM,[1],100%
same,inhibition at 1 µM,"[2]; Homo sapiens, Lymphocyte, test drug concentration 1 μM, IL-4 + IL-10 + anti-CD40 antibody, read-out: IgG production suppressing ratio (%)",-85.8%
same,IC50,[2],9.76 µM
O=C(Cc1ccc(Oc2ccc(OC3CCCCCCC3)cc2)nc1)Nc1ccccc1C(=O)O [compound 983],TGI,[3]; HBC-4,76 µM
same,TGI,[3]; HCT-15,30 µM
same,CC50,"[3]; HBC4, HBC-4",> 100 µM
same,GI50,"[3]; HBC4, HBC-4",0.59 µM
same,CC50,[3]; HCT-15,> 100 µM
same,GI50,[3]; HCT-15,0.1 µM
same,CC50,[3]; MKN-74,> 100 µM
same,GI50,[3]; MKN-74,0.46 µM
same,CC50,[3]; NCI-H460,95 µM
same,GI50,[3]; NCI-H460,0.33 µM
same,CC50,[3]; OVCAR-8,> 100 µM
same,GI50,[3]; OVCAR-8,4.2 µM
same,CC50,[3]; PC-3,> 100 µM
same,GI50,[3]; PC-3,4.5 µM
same,CC50,[3]; RXF-631L,96 µM
same,GI50,[3]; RXF-631L,0.4 µM
same,CC50,[3]; SF-539,51 µM
same,GI50,[3]; SF-539,0.6 µM
same,CC50,[3]; LOX-IMVI,50 µM
same,GI50,[3]; LOX-IMVI,0.26 µM
same,TGI,[3]; LOX-IMVI,3.4 µM
same,TGI,[3]; MKN-74,25 µM
same,TGI,[3]; NCI-H460,16 µM
same,TGI,[3]; OVCAR-8,40 µM
same,TGI,[3]; PC-3,31 µM
same,TGI,[3]; RXF-631L,18 µM
same,TGI,[3]; SF-539,20 µM

# From patent US6649656B1, “Anthranilic acid derivatives” (Teijin Limited, priority 1998, dated 2003)
